Reference: US8673856B2 (Anygen Co., Ltd., priority 2006, dated 2014)

Tested on: Sprague-Dawley male rats
Details: rat, in vivo

Row | Structure (SMILES) | 50% withdrawal threshold, mechanical stimulus
1 | CSCC[C@@H]1NC(=O)[C@H](CC(C)C)NC(=O)[C@H](CCCNC(=N)N)NC(=O)[C@H](CO)NC(=O)[C@@H]2CSSC[C@@H]3NC(=O)[C@H](CO)NC(=O)CNC(=O)[C@H]([C@@H](C)O)NC(=O)[C@H](CSSC[C@H](N)C(=O)N[C@@H](CCCCN)C(=O)NCC(=O)N[C@@H](CCCCN)C(=O)NCC(=O)N[C@@H](C)C(=O)N[C@@H](CCCCN)C(=O)N2)NC(=O)[C@H](CSSC[C@@H](C(N)=O)NC(=O)[C@H](CCCCN)NC(=O)CNC(=O)[C@H](CO)NC(=O)[C@H](CCCNC(=N)N)NC3=O)NC(=O)[C@H](CC(=O)O)NC(=O)[C@H](Cc2ccc(O)cc2)NC1=O [MVIIA, CKGKGAKCSRLMYDCCTGSCRSGKC-NH2] | increase in 50% withdrawal threshold
2 | CC[C@H](C)[C@@H]1NC(=O)[C@H](CCCNC(=N)N)NC(=O)[C@H](CO)NC(=O)[C@@H]2CSSC[C@@H]3NC(=O)[C@H](CO)NC(=O)CNC(=O)[C@H]([C@@H](C)O)NC(=O)[C@H](CSSC[C@H](N)C(=O)N[C@@H](CCCCN)C(=O)NCC(=O)N[C@@H]([C@@H](C)O)C(=O)NCC(=O)N[C@@H](CCCCN)C(=O)N[C@@H](CO)C(=O)N2)NC(=O)[C@H](CSSC[C@@H](C(N)=O)NC(=O)[C@H](CCCCN)NC(=O)CNC(=O)[C@H](CO)NC(=O)[C@H](CCCNC(=N)N)NC3=O)NC(=O)[C@H](CC(N)=O)NC(=O)[C@H](Cc2ccc(O)cc2)NC(=O)[C@H](C)NC1=O [FVIA, CKGTGKSCSRIAYNCCTGSCRSGKC-NH2] | increase in 50% withdrawal threshold
